Measured values from patent US7264314B2, “Adrenocorticotropic hormone analogs and related methods” (priority 2004, dated 2007).
No end group written: not given here.

Tests used:
[1] = molecular target: T1, adrenal ACTH receptors such as MC-2R (explanted adrenal membrane) (Mus musculus, UniProt Q64326); assay: in vitro Serum-free Adrenal Competitive Binding Assay; parameters: species or system mice; conditions: cold peptide at 10 nM, 100 nM, 1000 nM
T1 construct: the adrenal halves were macerated or otherwise dissociated using Dounce Homogenizer to form a membrane fraction; from tissue; host or cells: membrane fraction of explanted mouse adrenal glands
Description: ACTH analog compounds that bind to adrenal membrane with a greater affinity than endogenous unmodified ACTH, and are able to displace unmodified ACTH can be identified using an in vitro Serum-free Adrenal Competitive Binding Assay (Example 3). […] A higher CPM level indicates the presence of greater amounts of the radiolabelled compound. […] Column 220 indicates the level of radio-labeled unmodified mACTH(1–24) detected after combining the explanted adrenal membrane with only the radio-labeled mACTH(1–24) for 2 hours.(no competitive binding). Columns 230, 240, and 250 show the results of competitive binding assays for binding of non-radio-labeled (“cold”) mACTH(1–24) to displace the radio-labeled mACTH(1–24) from the explanted adrenal membrane (measured in column 220) by competitive binding to receptors such as MC-2R on the adrenal membrane. […]
ACTH analogs with the ability to bind adrenal receptors with a greater affinity than compounds with known adrenal binding activity (preferably ACTH) can also be identified by performing an in vitro Adrenal Competitive Binding Assay, whereby measurement of the reduction in the amount of the radiolabelled adrenal-binding compound (e.g., ACTH) is measured at various concentrations of non-radio-labeled ACTH analog test compound in a medium containing explanted adrenal membrane. […]

[2] = system: corticosterone production by explanted mouse adrenal halves; assay: in vitro Serum-free Adrenal Inhibition Assay; type: cell-based
Procedure: A series of separate in vitro Serum-Free Adrenal Corticosteroid Inhibition Assay were performed to identify ACTH analogs that inhibit ACTH-induced adrenal hormone production in vitro. The concentration of corticosterone was measured according to the procedure of Example 4 in a serum-free culture medium containing explanted adrenal membrane and unmodified ACTH, AT814 ACTH analog (SEQ ID NO:20), or a combination of ACTH and AT814 at 100 ng/mL each. […] Corticosterone levels were taken at 2.0 hours after the adrenal membrane was placed in the serum free M199 medium, and each corticosterone level in Table 5 is an average of five samples.
The in vitro Serum-free Adrenal Inhibition Assay was performed according the following method. First, adrenals were removed from mice, dissected free of fat, and cut in half. See Costa, J L, et al., “Mutational analysis of evolutionarily conserved ACTH residues,” Gen Comp Endocrinol. 136:12–16 (2004); and Weber, M M, et al., “Postnatal overexpression of insulin-like growth factor II in transgenic mice is associated with adrenocortical hyperplasia and enhanced steroidogenesis,” Endocrinology 140:1537–1543 (1999), incorporated herein by reference.
Second, each adrenal half was placed into an individual well of a 4-well dish, one dish per mouse. Adrenal halves were incubated at 5% CO2, 37° C., in 0.5 ml serum-free medium (M199; Invitrogen) for 30 minutes to equilibrate.
Third, medium was removed and replaced by 0.5 ml M199 containing ACTH, AT814, or both, at 100 ng/ml each; controls had no peptides added.
Fourth, after 2 hours of incubation, the medium was removed, pooled for all four halves from each mouse, and assayed by corticosterone using standard RIA methods. corticosterone was determined by competitive radioimmunoassay (^125I RIA kit; ICN, Costa Mesa, Calif.) according to the manufacturer's recommendations. One microliter of serum was used per assay sample. Samples were run in duplicates.

T1 sequence (Q64326 whole entry): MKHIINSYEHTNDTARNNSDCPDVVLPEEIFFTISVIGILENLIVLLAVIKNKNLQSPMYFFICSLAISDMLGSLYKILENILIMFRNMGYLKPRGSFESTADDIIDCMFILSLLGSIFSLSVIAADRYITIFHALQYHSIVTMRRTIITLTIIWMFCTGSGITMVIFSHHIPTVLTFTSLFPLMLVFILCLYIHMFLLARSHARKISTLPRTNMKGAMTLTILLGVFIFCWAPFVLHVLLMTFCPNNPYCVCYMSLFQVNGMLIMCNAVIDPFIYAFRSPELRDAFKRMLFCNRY
T1 sequence (Q9D159 whole entry partner): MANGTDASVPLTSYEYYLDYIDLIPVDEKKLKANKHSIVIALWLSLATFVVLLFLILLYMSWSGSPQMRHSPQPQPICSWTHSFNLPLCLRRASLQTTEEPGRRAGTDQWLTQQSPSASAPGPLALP

Substance: N-Ser^1-Tyr-Ser-Met-Glu^5-His-Phe-Arg-Trp-Gly^10-Lys-Pro-Val-Gly-Lys^15-Arg-Ala-Ala-Trp-Val^20-Lys-Val-Tyr-Pro-Ac (SYSMEHFRWGKPVGKRAAWVKVYP; not fully specified (C-terminus); printed as N-Ser1-Tyr-Ser-Met-Glu5-His-Phe-Arg-Trp-Gly10-Lys-Pro-Val-Gly-Lys15-Arg-Ala-Ala-Trp-Val20-Lys-Val-Tyr-Pro-Ac) [AT814]
- displacement of radio-labeled mACTH(1–24) from explanted adrenal membrane (CPM) [1]: displacement of the radio-labeled mACTH(1–24)
- corticosterone induction relative to ACTH (FIG. 4) ([2]; AT814 alone): negligible amount of corticosterone induction
- reduction of corticosterone induction compared to unmodified ACTH alone ([2]; equal amounts of AT814 and unmodified ACTH): about 65%
- corticosterone level in M199 serum-free medium ([2]; peptide alone, 100 ng/mL, 2 hours after addition, average of five samples, listed as (KKRRP15-19KRAAW) mACTH(1–24)): about 290 mg/mL
